Results: patent publication US6756368B1, “Use of cobalt chelates for treating or preventing virus infection” (The Trustees of Columbia University in the City of New York, priority 1999, dated 2004)
“Also recorded” adds a separate entry of the source.

Key:
influenza virus = test: Influenza virus plaque assay on MDCK cells; type: cell-based, influenza virus strain PR8; conditions: magnitude not quantifiable
HSV-1 [1] = conditions: in vivo; cited from earlier work
[2] = 50 μg/ml of CTC-96; cited from earlier work
HSV-1 [3] = test: Accumulation of α4 and α27 mRNAs (RT-PCR); type: cell-based, HSV-1 Glasgow strain 17
Description: Vero cell monolayers were either mock infected or infected. The accumulation of α4 and α27 mRNAs from infected cells was determined as previously described [Lium and Silverstein 1997] by coupled reverse transcription (RT) and polymerase chain reaction (PCR) using the commercial kit, EZ rTth RNA PCR kit (Perkin-Elmer) as specified by the manufacturer with modifications. The primers used during RT were 4-2 and ICP27-L-RT [Lium and Silverstein 1997]. Following RT, secondary primers were added for PCR (4-1 and ICP27-U-RT) (55). These primers result in amplification of a 100 basepair (bp) fragment and a 220 bp fragment from the α4 and α27 genes, respectively.
The failure to detect virus specified polypeptides of any kinetic class in cells infected in the presence of CTC96 led us to ask if virus transcripts accumulated under these conditions. Accordingly, virus was incubated with 50 μg/ml of drug for 10 min and then either washed out by dilution and used to infect cells or used directly to infect cells. At 2 and 4 hr post infection cells were harvested and total infected cell RNA was prepared for analysis by RT-PCR for the presence of transcripts from the ∝4 and ∝27 genes. […] When these studies are carried out to as long as 8 hr pi there is still no detectable accumulation of virus-specified transcripts (data not shown). […] (FIG. 15).

Ad-CMV-null = test: Fluorescence focus assay, AdCMV-null on 293T cells; type: cell-based, adenovirus
Description: A549 or 293 cell monolayers were infected with Ad2 or Ad-CMV-null at 0.1 fluorescence focus units (FFUs) per cell for 2 h in 2% BCS DMEM in the presence and absence of 50 μg/ml CTC-96. At 29 h postinfection the plates were washed twice with PBS and fixed with methanol for 4 min at room temperature. Cells were washed twice with PBS, incubated in 500 μl 1:100 rabbit polyclonal anti-adenovirus serum in PBS for 30 min at room temperature and washed with PBS. Plates were then incubated in 500 μl 1:40 goat anti-rabbit IgG conjugated FITC in PBS. Foci were visualized using a Leitz Dialux microscope with an optical system for the selective visualization of FITC and then counted.
293T cells were plated on 35 mm dishes. Cells should be @5×10^6 cells/plate.
293T Cells were infected with AdCMV-null @ moi=0.1 (i.e. 0.1 FFU/cell)
virus was diluted in D2 media +/− 50 μg/ml CTC96 D2=2% serum DMEM
Plates were overlaid with 2.5 ml D2 +/− 50 μg/ml CTC96 and incub. @37° C. for 28 h (total)

HSV-1 [4] = test: Fractionation and in situ localization of virus DNA; type: cell-based, HSV-1 Glasgow strain 17
[5] = test system: varicella-zoster virus (VZV); test: VZV infection of Helf cells, immunohistochemistry; type: cell-based, VZV strain Ellen
Description: Helf cell monolayers seeded on two chambered slides were infected with 20 μl cell-associated VZV in 1% FBS DMEM in the presence and absence of 50 μg/ml CTC-96. At 28 h postinfection, the slides were washed twice with PBS, fixed in 3.7% formaldehyde in PBS for 30 min at room temperature, and washed again. The infected cells were washed twice with Tris-buffered saline (TBS) and incubated at −20° C. in −20° C. acetone for 10 min. Slides were washed twice with TBS, blocked with 1% goat serum (Sigma, St. Louis, Mo.) in TBS for 20 min at room temperature, and incubated in 200 μl 1:200 rabbit polyclonal anti-ORF 29 in 1% goat serum TBS for 30 min at room temperature. The slides were washed three times with TBS for 5 min each and then incubated with 200 μl 1:200 goat anti-rabbit IgG conjugated horseradish? peroxidase (Kirkegaard and Perry Laboratories Inc.) in 1% goat serum TBS for 30 min at room temperature. Slides were washed three times with TBS for 5 min each. The peroxidase was developed for 5 min using the commercial kit, Alkaline Phosphatase Substrate Kit III (Vector Laboratories Inc., Burlingame, Calif.) according to the manufacturer's directions and then washed several times with water. The slides were viewed with a Leitz Dialux microscope. Endocytosis assay. Vero cells seeded on cover slips were incubated at 37° C. in 5% BCS DMEM with and without 50 μg/ml CTC-96 for various times. […]

HSV-1 [6] = type: cell-based, HSV-1 Glasgow strain 17; conditions: CTC-96 added at 16 hpi, virus harvested 4 hours later
HSV-1 [7] = test: Fluorescence dequenching fusion assay with R18 labeled HSV-1; type: cell-based, HSV-1 Glasgow strain 17; conditions: 50 μg/ml
Vero cells = test: Cytotoxic effect on Vero cell monolayers

CC(/C=C(/C)[O-])=NCCN=C(C)/C=C(/C)[O-].Cc1ncc[nH]1.Cc1ncc[nH]1.[Br-].[Co+3] [CTC-96]
effect on influenza virus infection (influenza virus): positive virus inhibitory effect; also recorded: effective against influenza virus infection | effect on HSV-1 keratitis in the rabbit eye model (HSV-1 [1]): reduce the corneal surface level of HSV-1 and facilitate the recovery from dendritic keratitis; also recorded: most potent inhibitory effect | toxicity in animal models [2]: does not appear to be toxic | time in which the action of the drug occurs (HSV-1 [3]): less than 10 min | accumulation of α4 and α27 mRNAs (HSV-1 [3]; 50 μg/ml present from onset of infection, 2 and 4 hr pi): neither the accumulation of α4 nor α27 mRNAs were detectable; also recorded: inhibits α4 and α27 gene expression | accumulation of α4 and α27 mRNAs (HSV-1 [3]; 50 μg/ml present from onset of infection, 2 and 4 hr pi, listed as CTC96): no accumulation | accumulation of α4 and α27 mRNAs (HSV-1 [3]; virus exposed to drug 10 min, drug then diluted/removed): began to accumulate | accumulation of α4 and α27 mRNAs (HSV-1 [3]; virus exposed to drug 10 min, drug then diluted/removed, listed as CTC96): A small amount of immediate early gene RNA is detected | adenovirus foci (Ad-CMV-null; 50 μg/ml, 293T cells, AdCMV-null moi 0.1, 28 h): NO FOCI ON EITHER PLATE | % Inhibition (Ad-CMV-null; Ad-CMV-null, 293T, 50 μg/ml of CTC-96, fluorescence focus assay): 100% | nuclear accumulation of 3H labeled HSV-1 DNA (autoradiography) (HSV-1 [4]): prevented the nuclear accumulation | virus DNA in nuclear and cytoplasmic fractions (HSV-1 [4]): very little detectable virus DNA in either fraction; also recorded: no significant increase in nuclear associated HSV-1 specific DNA | cells positive for VZV ([5]; Helf cells, in the presence of CTC-96): Very few cells were positive | % Inhibition ([5]; VZV (Ellen), Helt, 50 μg/ml of CTC-96, immunohistochemistry): 100% | virus titers (HSV-1 [6]): negligible drop in virus titers | fusion of the virus envelope with the plasma membrane (HSV-1 [7]): prevented HSV-1 fusion to the cell; also recorded: inhibits the fusion of the virion envelope with the plasma membrane; also recorded: inhibited | fluorescence dequenching of R18 (HSV-1 [7]; up to 40 min post-warming): significantly dampened | effect on the cell monolayer (Vero cells; 50 μg/ml, after two days of incubation): severely affected | cytotoxicity on Vero cell monolayers (Vero cells; prolonged exposure (several days) to 50 μg/ml): cytotoxic effects; also recorded: cytotoxicity
